Data taken from patent US20220170945A1, “METHOD FOR ASSISTING EVALUATION OF RENAL PATHOLOGICAL CONDITIONS, SYSTEM FOR EVALUATING RENAL PATHOLOGICAL CONDITIONS AND PROGRAM FOR EVALUATING RENAL PATHOLOGICAL CONDITIONS” (Kagami Inc., priority 2019, published 2022).

Conditions: human, in vivo
Description: According to the invention, the excretion rate (excretion) is a marker representing the degree of discharge into urine of the amount of target components that have been filtered through the glomeruli by way of the regulating function of the renal tubules (reabsorption and secretion), and it is expressed as a proportion or percentage, or in arbitrary units. The value can be calculated after excluding the effect of reabsorption or concentration of water by correction using a correction factor, and expressed as fractional excretion (FE). Since urine often has a variable concentration rate, the percentages of reabsorption and excretion of D-serine and/or D-asparagine in the kidneys of a subject may be corrected using a “correction factor” that corrects for the urine concentration rate. According to one embodiment of the invention, for example, the subject D-serine excretion rate and/or the subject D-asparagine excretion rate may be corrected by a correction factor derived from the blood and/or urine. In its most simple form, the excretion rate is expressed as a percentage of the amount of target components in urine divided by the glomerular filtration rate for the target components, and the glomerular filtration rate obtained by inulin clearance or the actually measured urinary volume, as well as the amounts of target components in blood and/or in urine, may also be used for the calculation. L-amino acid levels (preferably the levels of L-serine and/or L-asparagine) in urine may also be used as urinary volume correction factors for calculation of the D-amino acid excretion rate. Creatinine clearance, calculated by urine creatinine level or the blood creatinine level, may also be used as a correction factor, expressing the D-serine excretion rate by the following formula, for example. This may then be multiplied by 100 to obtain a percent (%).
The test protocol was approved by the ethics committee of the national research and development agency: National Institutes of Biomedical Innovation, Health and Nutrition, and written informed consent was obtained from all of the test subjects.
Sample preparation from human blood plasma and urine was carried out as follows: First a 20-fold volume of methanol was added to and completely mixed with the blood plasma. […]
The amino acid optical isomers were quantified using the following two-dimensional HPLC system. […] NBD-amino acids were detected by fluorescence detection at 530 nm using excitation light of 470 nm. The NBD-amino acid retention time was identified from standard amino acid optical isomers and quantified by a calibration curve.
The blood urine D-serine level and blood urine D-asparagine level and creatinine level were calculated by substitution into the following formulas.

Compound | excretion rate after administration of ARB | excretion rate before administration of ARB
N[C@H](CO)C(=O)O [D-serine] | 25.73% | 64.56%
NC(=O)C[C@@H](N)C(=O)O [D-asparagine] | 35.39% | 45.71%
